Source: US10561704B2, “Compositions and methods for treating neuropsychiatric disorders using an endothelin-B receptor agonist” (MIDWESTERN UNIVERSITY, priority 2013, dated 2020)
*1 amine or outer side, *2 acyl side, *3 side chain or, on linkers, in order; H or OH if unused. Where no end group is shown, it is not given here. Suc = O=C(CCC(=O)[*:2])[*:1]

Tested on: Aβ treated non-diabetic and diabetic rats
Assay: Morris water maze test for cognitive impairment in Aβ treated rats
Assay type: in vivo, Sprague-Dawley rats
Experimental: Amyloid-β (1-40) (Tocris Bioscience, Ellisville, Mo., USA), IRL-1620 [N-Succinyl-[Glu9, Ala11,15] endothelin 1] (American Peptide Co, Inc., Sunnyvale, Calif., USA) and BQ788 (American Peptide Co, Inc., Sunnyvale, Calif., USA) were dissolved in sterile saline and all the solutions were freshly prepared before injections. Ketamine (Butler Animal Health Supply, Dublin, Ohio, USA) was administered at a dose of 100 mg/kg, intraperitoneally (i.p.), and xylazine (Lloyd Laboratories, Shenandoah, Iowa, USA) was administered at a dose of 10 mg/kg, i.p. Rats were anesthetized with ketamine (100 mg/kg) and xylazine (10 mg/kg) and a lateral cerebral ventricle was cannulated by placing the rat in a stereotaxic (David Kopf Instruments, Tujunga, Calif., USA) instrument and fixing the cannula (coordinates: 1.0 mm lateral, 1.5 mm caudal to bregma and 4.0 mm deep from the bone). Cannula (Plastics One, Roanoke, Va., USA) was anchored with dental acrylic to three screws placed in the skull. The animals were allowed to recover from surgery for at least seven days. After 7 days, rats were treated with vehicle, Aβ (1-40), ETB receptor agonist and/or antagonist in the lateral cerebral ventricles using the implanted cannula. Vehicle, Aβ or ETB receptor agonist and antagonist were injected in a volume of 5 μl over a period of 5 minutes. Aβ (1-40) was used because it is highly soluble compared to Aβ (1-42) and induces endothelial dysfunction of both cerebral and systemic blood vessels in addition to memory deficit (Nitta et al., 1994; Niwa et al., 2000; Smith et al., 2004; Weller et al., 1998). Agents were delivered using 10 μl Hamilton syringe and agent treatments were carried out individually using separate 10 μl syringe. IRL-1620 was administered 1 hour after Aβ injection whereas BQ788 was administered 15 minutes prior to IRL-1620 injection. At the end of the experiment, placement of cannula was confirmed by injecting methylene blue dye (5 μl) and observing the site and extent of staining. All experiments were performed on day 15 (Briyal et al., 2011). Water maze testing was performed from day 15 to day 19 after which animals were euthanized. Animals used for oxidative stress measurements were euthanized on day 15 without being subjected to any behavioral testing. Diabetes mellitus type 2 was induced in rats belonging to the diabetic group by administering freshly prepared streptozotocin at the dose of 45 mg/kg, i.p. Streptozotocin was dissolved in 0.01 M sodium citrate buffer of pH 4.3. On day 3, blood glucose was obtained from the rat-tail and tested for hyperglycemia using the SureStep Complete Blood Glucose monitor kit. Rats with blood glucose levels above 11.1 mM were considered diabetic. Diabetic and non-diabetic animals were randomly divided into five groups (6 rats per group) (i) Sham, (ii) Aβ+Vehicle, (iii) Aβ+IRL-1620, (iv) Aβ+BQ788 (v) Aβ+BQ788+IRL-1620. Aβ (1-40) was administered intracerebroventricularly (i.c.v.) (20 μg in 3 equally divided doses i.e. 6.67 μg were injected 3 times for a total of 20 μg dose) on day 1, 7, and 14. Specific ETB receptor agonist, IRL-1620 (3 μg) and specific ETB receptor antagonist, BQ788 (10 μg) were administered i.c.v. daily for 14 days starting from day 1 of Aβ injection. The doses of IRL-1620 and BQ788 were selected on the basis of previous studies conducted in our laboratory (Leonard et al., 2011).
Spatial learning and memory of animals were tested in a MWM (Morris, 1984). […]

| Compound | Improvement in escape latency produced by IRL-1620 (Aβ rats, BQ788 given with IRL-1620) | Time spent in the target quadrant, probe trial (Aβ treated rats given BQ788) | Escape latency, water maze acquisition (Aβ treated rats, day 3 and 4 of training, vs Aβ + vehicle) | Path length, water maze acquisition (Aβ treated rats, vs vehicle group) | Time spent in the target quadrant, probe trial (Aβ treated rats, vs vehicle treated Aβ rats) |
| --- | --- | --- | --- | --- | --- |
| CCCC[C@@H](NC(=O)[C@@H](Cc1cn(C(=O)OC)c2ccccc12)NC(=O)[C@H](CC(C)(C)C)NC(=O)N1[C@H](C)CCC[C@@H]1C)C(=O)O [BQ788, reference compound] | blocked | did not produce any improvement | – | – | – |
| Suc-Asp-Glu-Glu-Ala-Val-Tyr-Phe-Ala-His-Leu-Asp-Ile-Ile-Trp (Suc-DEEAVYFAHLDIIW) [IRL-1620] | – | – | decreased significantly | shorter path lengths | increased |
